Results as given in patent publication US20250387334A1, “Oxyanion azide-benzaldehyde acetal acid-degradable lipids” (The Regents of the University of California, priority 2023, published 2025).

Tests used:
[1] = Hydrolysis kinetics of compounds 1-3 and their reduced forms (plate reader, mass spectrum); format: physicochemical; conditions: for compound detected in the buffer by mass spectrum: 6 hours; for half-life: buffer
From the text: Engineering PEG-lipids to rapidly hydrolyze in endosomes has the potential to generate LNPs that have high levels of PEGylation and also transfect cells efficiently^10, 19, 20. The PEG-lipid reduces LNP toxicity and enhances LNP diffusion through tissue. However, LNPs are currently made with 0.5-1.5 mole percent of the PEG-lipid because increasing PEGylation levels beyond these levels can have detrimental effects. For example, the PEG-lipid lowers endosomal disruption by preventing the mixing of the ionizable lipid with endosomal lipids^20, 21 and causes the formation of anti-PEG antibodies^22. LNPs made with acid-degradable PEG-lipids should transfect cells efficiently even at high levels of PEGylation because they will hydrolyze off the LNP after endocytosis and will be released from the LNP surface. In addition, the immunogenicity of PEG dramatically increases after conjugation to lipids, and acid-degradable PEG-lipids may also have lower immunogenicity than traditional PEG-lipids because they will rapidly generate free PEG after endocytosis^22, 23.

[2] = IL-22 protein; cited from earlier work
[3] = Acid-catalyzed hydrolysis kinetics of model azido-acetal 4 and its reduced form 5; format: physicochemical
From the text: RD-LNPs are based upon the rapid hydrolysis of the azido-acetal linker at pH 6.0. We synthesized the model azido-acetal 4 and measured its acid-catalyzed hydrolysis rate before and after reduction to investigate whether reductive activation accelerates the hydrolysis kinetics of an azido-acetal. […] The azido-acetal has the stability needed for performing multi-step organic reactions and should enable the development of new materials that are hypersensitive to acidic conditions. […] In addition, the reduced azido-acetal hydrolyzes with a t1/2<30 minutes at pH 6.0 and has the hydrolysis kinetics needed to degrade in endosomes before trafficking to lysosomes occurs4. The two-step hydrolysis mechanism of the azido-acetal overcomes the stability problems preventing the development of rapidly hydrolyzing lipids and provides a general strategy for developing lipids and materials that rapidly hydrolyze at endosomal pHs.

[4] = DTT reduction kinetics of compound 4; format: physicochemical

In the case of `CC(C)CCC[C@@H](C)[C@H]1CC[C@H]2[C@@H]3CC=C4C[C@@H](OC(=O)NCCOC(OCC[N+](C)(C)C)c5ccc(N=[N+]=[N-])cc5)CC[C@]4(C)[C@H]3CC[C@]12C` (some centres unmarked) [Compound 3], the “compound detected in the buffer by mass spectrum” value ([1]; pH 4 and pH 5, 37° C.) is reported as “nearly no compound 3 was detected” and the “compound detected in the buffer by mass spectrum” value ([1]; pH 6 and pH 7.4, 37° C.) is reported as “a large amount”.

Compound `COCCOCCOCCOCCOCCOCCOCCOCCOCCOCCOCCOCCOCCOCCOCCOCCOCCOCCOCCOCCOCCOCCOCCOCCOCCOCCOCCOCCOCCOCCOCCOCCOCCOCCOCCOCCOCCOCCOCCOCCOCCOCCOCCOCCOCCOC(=O)NCCOC(OCCNC(=O)O[C@H]1CC[C@@]2(C)C(=CC[C@H]3[C@@H]4CC[C@H]([C@H](C)CCCC(C)C)[C@@]4(C)CC[C@@H]32)C1)c1ccc(N=[N+]=[N-])cc1` (some centres unmarked) [Compound 1] has a half-life ([1]; pH 4.0, read-out: t1/2 (minute) pH 4.0) of 54.8 ± 3.89 min, a half-life ([1]; pH 5.0, read-out: t1/2 (minute) pH 5.0) of 192 ± 28.3 min and a half-life ([1]; pH 6.0, cell prints day, read-out: t1/2 pH 6.0) of 4280 min. For the same compound, the half-life ([1]; pH 7.4, cell prints day, read-out: t1/2 pH 7.4 (converted)) was 28500 min.

In the case of IL-22: soluble IL-22 protein, cytokine, the circulation half-life [2] is listed as “under 2 hours”.

In the case of `COC(=O)NCCOC(OCCNC(=O)OC)c1ccc(N=[N+]=[N-])cc1` [Compound 4], the half-life ([3]; buffer, pH 4) is reported as 0.0567 ± 0.00133 h, the half-life ([3]; buffer, pH 5) is reported as 0.619 ± 0.0115 h and the half-life ([3]; buffer, pH 6) is reported as 8.57 ± 0.117 h. For the same compound, the half-life ([3]; pH 7.4) was 507 h, the predicted hydrolysis half-life ([3]; pH 7.4) was 21 days and the “hydrolysis after 6.5 hours” value ([3]; pH 7.4, 6.5 hours) was “under 1%”. The half-life ([4]; 10 mM DTT solution (chemical reduction), read-out: DTT reduction t1/2 (minute) 10 mM) was 26.4 ± 3.37 min, the half-life ([4]; 25 mM DTT solution (chemical reduction), read-out: DTT reduction t1/2 (minute) 25 mM) was 14.2 ± 0.5 min and the half-life ([4]; 50 mM DTT solution (chemical reduction), read-out: DTT reduction t1/2 (minute) 50 mM) was 11.9 ± 1.85 min. For the same compound, the half-life ([4]; 100 mM DTT solution (chemical reduction), read-out: DTT reduction t1/2 (minute) 100 mM) was 7.21 ± 0.11 min.
